According to US10703757B2, “Compounds and methods for CDK8 modulation and indications therefor” (Plexxikon Inc., priority 2016, dated 2020):

Legend:
[1] = system: CDK8 (phosphorylation of STAT1 at serine 727 in A549 cells); assay: Cell based Phospho-STAT1 assay (IFNγ-stimulated A549 cells, AlphaLISA); details: Homo sapiens, A549, A549 cells, phospho-STAT1 after IFNγ stimulation
In short: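 A549 cells given serial compound dilutions for 1 h at 37 °C, then stimulated with IFNγ at 10 ng/mL final for 30 min. Lysate STAT1 Ser727 phosphorylation measured by AlphaLISA; % inhibition vs stimulated/unstimulated DMSO controls, IC50 by nonlinear regression.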

[2] = system: CDK8 (TCF/LEF luciferase reporter in HCT116 cells); assay: Cell based TCF/LEF reporter assay (HCT116+TCF/LEF luciferase); details: Homo sapiens, HCT-116, 24 h
In short: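 Luciferase readout was corrected for viability (CellTiter-Fluor) and scaled between DMSO high and 10 uM CCT251545 low controls, giving IC50 by nonlinear regression. Compounds, serially diluted, were incubated 24 h at 37 °C on HCT116 clones stably expressing a TCF/LEF-driven luciferase reporter.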

IC50 [1] [µM]	IC50 [2] [µM]	Compound
0.0001 to 0.1	0.0001 to 0.1	CC(C)(O)Cn1cc(-c2ccc(-c3cnn4ccnc(C5CCC(C#N)CC5)c34)cc2Cl)cn1 (stereo not drawn) [Compound P-0031, (1s,4s)-4-(3-(3-chloro-4-(1-(2-hydroxy-2-methylpropyl)-1H-pyrazol-4-yl)phenyl)pyrazolo[1,5-a]pyrazin-4-yl)cyclohexane-1-carbonitrile]
0.0001 to 0.1	0.0001 to 0.1	Cn1cc(-c2ccc(-c3cnc4[nH]ccc4c3C3=CCC(C#N)CC3)cc2)cn1 (stereo not drawn) [Compound P-0359, 4-(5-(4-(1-methyl-1H-pyrazol-4-yl)phenyl)-1H-pyrrolo[2,3-b]pyridin-4-yl)cyclohex-3-ene-1-carbonitrile]
0.0001 to 0.1	0.0001 to 0.1	N#CC1CCC(c2nccn3ncc(-c4ccc(-c5cnn(CC(F)F)c5)cc4)c23)CC1 (stereo not drawn) [Compound P-0021, (1s,4s)-4-(3-(4-(1-(2,2-difluoroethyl)-1H-pyrazol-4-yl)phenyl)pyrazolo[1,5-a]pyrazin-4-yl)cyclohexane-1-carbonitrile]
0.0001 to 0.1	0.0001 to 0.1	Cc1nc2ccc(-c3cnn4ccnc(C5=CCC(C#N)CC5)c34)cc2s1 (stereo not drawn) [Compound P-0149, 4-(3-(2-methylbenzo[d]thiazol-6-yl)pyrazolo[1,5-a]pyrazin-4-yl)cyclohex-3-ene-1-carbonitrile]
0.0001 to 0.1	0.1 to 1	CS(=O)(=O)c1ccc(-c2cnn3cccc(C4=CCC(C#N)CC4)c23)cc1F (stereo not drawn) [Compound P-0126, 4-(3-(3-fluoro-4-(methyl-sulfonyl)phenyl)pyrazolo[1,5-a]pyridin-4-yl)cyclohex-3-ene-1-carbonitrile]
0.0001 to 0.1	0.0001 to 0.1	COCCn1cc(-c2ccc(-c3cnn4cccc(C#CC(C)(C)C(N)=O)c34)cc2)cn1 [Compound P-0469, 4-(3-(4-(1-(2-methoxyethyl)-1H-pyrazol-4-yl)phenyl)pyrazolo[1,5-a]pyridin-4-yl)-2,2-dimethylbut-3-ynamide]
0.0001 to 0.1	0.0001 to 0.1	CNC(=O)c1ccc2cc(-c3cnn4cccc(C#CC(C)(C)O)c34)ccc2c1 [Compound P-0222, 6-(4-(3-hydroxy-3-methylbut-1-yn-1-yl)pyrazolo[1,5-a]pyridin-3-yl)-N-methyl-2-naphthamide]
0.0001 to 0.1	0.0001 to 0.1	CC(C)(O)Cn1cc(-c2ccc(-c3cnn4ccnc(C5=CCC(C#N)CC5)c34)cc2F)cn1 (stereo not drawn) [Compound P-0163, 4-(3-(3-fluoro-4-(1-(2-hydroxy-2-methylpropyl)-1H-pyrazol-4-yl)phenyl)pyrazolo[1,5-a]pyrazin-4-yl)cyclohex-3-ene-1-carbonitrile]
0.0001 to 0.1	0.0001 to 0.1	N#CC1CC=C(c2c(-c3ccc4c(c3)NC(=O)C4)cnc3[nH]ccc23)CC1 (stereo not drawn) [Compound P-0208, 4-(5-(2-oxoindolin-6-yl)-1H-pyrrolo[2,3-b]pyridin-4-yl)cyclohex-3-ene-1-carbonitrile]
0.1 to 1	0.1 to 1	O=C(C1CCC(c2cccn3ncc(-c4ccc(-c5cnn(C(F)F)c5)cc4)c23)CC1)N1CCC1 (stereo not drawn) [Compound P-0315, azetidin-1-yl(4-(3-(4-(1-(difluoromethyl)-1H-pyrazol-4-yl)phenyl)pyrazolo[1,5-a]pyridin-4-yl)cyclohexyl)methanone]
0.0001 to 0.1	0.0001 to 0.1	N#CC1CCC(c2cccn3ncc(-c4ccc(OCC5CCCCO5)cc4)c23)CC1 (stereo not drawn) [Compound P-0144, 4-(3-(4-((tetrahydro-2H-pyran-2-yl)methoxy)phenyl)pyrazolo[1,5-a]pyridin-4-yl)cyclohexane-1-carbonitrile]
0.0001 to 0.1	0.0001 to 0.1	N#CC1CC=C(c2nccn3ncc(-c4ccc(Cl)cc4)c23)CC1 (stereo not drawn) [Compound P-0090, 4-(3-(4-chlorophenyl)pyrazolo[1,5-a]pyrazin-4-yl)cyclohex-3-ene-1-carbonitrile]
0.0001 to 0.1	0.0001 to 0.1	Cc1nc2ccc(-c3cnc4[nH]ccc4c3C3=CCC(C#N)CC3)cc2s1 (stereo not drawn) [Compound P-0164, 4-(5-(2-methylbenzo[d]thiazol-6-yl)-1H-pyrrolo[2,3-b]pyridin-4-yl)cyclohex-3-ene-1-carbonitrile]
0.0001 to 0.1	0.0001 to 0.1	Cn1cc(-c2ccc(-c3cnn4cccc(C5=CCC(C(N)=O)CC5)c34)cc2)cn1 (stereo not drawn) [Compound P-0443, 4-(3-(4-(1-methyl-1H-pyrazol-4-yl)phenyl)pyrazolo[1,5-a]pyridin-4-yl)cyclohex-3-ene-1-carboxamide]
0.0001 to 0.1	0.1 to 1	Cn1cc(C#Cc2cnc3[nH]ccc3c2C2=CCC(C#N)CC2)cn1 (stereo not drawn) [Compound P-0184, 4-[5-[2-(1-methylpyrazol-4-yl)ethynyl]-H-pyrrolo[2,3-b]pyridin-4-yl]cyclohex-3-ene-1-carbonitrile]
0.0001 to 0.1	0.0001 to 0.1	CC(C)(O)Cn1cc(-c2ccc(-c3cnn4ccnc(C5CCC(C#N)CC5)c34)cc2F)cn1 (stereo not drawn) [Compound P-0032, (1s,4s)-4-(3-(3-fluoro-4-(1-(2-hydroxy-2-methylpropyl)-1H-pyrazol-4-yl)phenyl)pyrazolo[1,5-a]pyrazin-4-yl)cyclohexane-1-carbonitrile]
0.0001 to 0.1	0.0001 to 0.1	N#CC1CC=C(c2cccn3ncc(-c4ccc(N5CCOCC5)c(F)c4)c23)CC1 (stereo not drawn) [Compound P-0125, 4-(3-(3-fluoro-4-morpholinophenyl)pyrazolo[1,5-a]pyridin-4-yl)cyclohex-3-ene-1-carbonitrile]
0.0001 to 0.1	0.0001 to 0.1	CS(=O)(=O)Nc1ccc2cc(-c3cnn4cccc(C5=CCC(C#N)CC5)c34)ccc2c1 (stereo not drawn) [Compound P-0199, N-(6-(4-(4-cyanocyclohex-1-en-1-yl)pyrazolo[1,5-a]pyridin-3-yl)naphthalen-2-yl)methanesulfonamide]
0.1 to 1	0.0001 to 0.1	CC(C)(O)Cn1cc(-c2ccc(-c3cnc4[nH]ccc4c3C3=CCC(C(N)=O)CC3)cc2F)cn1 (stereo not drawn) [Compound P-0134, 4-(5-(3-fluoro-4-(1-(2-hydroxy-2-methylpropyl)-1H-pyrazol-4-yl)phenyl)-1H-pyrrolo[2,3-b]pyridin-4-yl)cyclohex-3-ene-1-carboxamide]
0.0001 to 0.1	0.0001 to 0.1	CC(C)(O)Cn1cc(-c2ccc(-c3cnn4ccnc(C5CCC(C#N)CC5)c34)cn2)cn1 (stereo not drawn) [Compound P-0459, (1s,4s)-4-(3-(6-(1-(2-hydroxy-2-methylpropyl)-1H-pyrazol-4-yl)pyridin-3-yl)pyrazolo[1,5-a]pyrazin-4-yl)cyclohexane-1-carbonitrile]
0.0001 to 0.1	0.0001 to 0.1	CS(=O)(=O)Cn1cc(-c2ccc(-c3cnn4ccnc(C5=CCC(C#N)CC5)c34)cc2)cn1 (stereo not drawn) [Compound P-0028, 4-(3-(4-(1-((methylsulfonyl)methyl)-1H-pyrazol-4-yl)phenyl)pyrazolo[1,5-a]pyrazin-4-yl)cyclohex-3-ene-1-carbonitrile]
1 to 10	1 to 10	Cn1cc(C#Cc2cnc3cccc(N4CCC5(CC4)CNC(=O)O5)n23)cn1 [Compound P-0277, 8-(3-((1-methyl-1H-pyrazol-4-yl)ethynyl)imidazo[1,2-a]pyridin-5-yl)-1-oxa-3,8-diazaspiro[4.5]decan-2-one]
0.0001 to 0.1	0.0001 to 0.1	N#CC1CC=C(c2nccn3ncc(-c4ccc(OCC(O)CN5CCCCC5)cc4)c23)CC1 (stereo not drawn) [Compound P-0084, 4-(3-(4-(2-hydroxy-3-(piperidin-1-yl)propoxy)phenyl)pyrazolo[1,5-a]pyrazin-4-yl)cyclohex-3-ene-1-carbonitrile]
0.0001 to 0.1	0.1 to 1	NC(=O)C1CC=C(c2cccn3ncc(-c4ccc(-n5cccn5)cc4)c23)CC1 (stereo not drawn) [Compound P-0197, 4-(3-(4-(1H-pyrazol-1-yl)phenyl)pyrazolo[1,5-a]pyridin-4-yl)cyclohex-3-ene-1-carboxamide]
0.0001 to 0.1	0.0001 to 0.1	CC(C)(O)Cn1cc(-c2ccc(-c3cnn4cccc(C#CC(C)(C)C(N)=O)c34)cc2)cn1 [Compound P-0006, 4-(3-(4-(1-(2-hydroxy-2-methylpropyl)-1H-pyrazol-4-yl)phenyl)pyrazolo[1,5-a]pyridin-4-yl)-2,2-dimethylbut-3-ynamide]
0.0001 to 0.1	0.0001 to 0.1	N#CC1CC=C(c2cccn3ncc(-c4ccc(OCCN5CCCCC5)cc4)c23)CC1 (stereo not drawn) [Compound P-0181, 4-(3-(4-(2-(piperidin-1-yl)ethoxy)phenyl)pyrazolo[1,5-a]pyridin-4-yl)cyclohex-3-ene-1-carbonitrile]
0.0001 to 0.1	0.0001 to 0.1	N#CC1CC=C(c2nccn3ncc(-c4cc5ccccc5s4)c23)CC1 (stereo not drawn) [Compound P-0073, 4-(3-(benzo[b]thiophen-2-yl)pyrazolo[1,5-a]pyrazin-4-yl)cyclohex-3-ene-1-carbonitrile]
0.0001 to 0.1	0.0001 to 0.1	COc1ccc(-c2cnn3cccc(C4CCC(C#N)CC4)c23)cc1 (stereo not drawn) [Compound P-0137, 4-(3-(4-methoxyphenyl)pyrazolo[1,5-a]pyridin-4-yl)cyclohexane-1-carbonitrile]
0.0001 to 0.1	0.1 to 1	CC(C)(O)C#Cc1cccn2ncc(-c3ccc4cc(C(N)=O)ccc4c3)c12 [Compound P-0191, 6-(4-(3-hydroxy-3-methylbut-1-yn-1-yl)pyrazolo[1,5-a]pyridin-3-yl)-2-naphthamide]
0.0001 to 0.1	0.0001 to 0.1	N#CC1CCN(c2c(-c3ccc(-c4cnn(CC5CC5)c4)cc3)cnc3[nH]ccc23)CC1 [Compound P-0177, 1-(5-(4-(1-(cyclopropylmethyl)-1H-pyrazol-4-yl)phenyl)-1H-pyrrolo[2,3-b]pyridin-4-yl)piperidine-4-carbonitrile]
